Experimental data taken from publication PMC6669600 (Viruses, 2019).

Molecular target: N36 (gp41 NHR-derived target mimic peptide) (Human immunodeficiency virus type 1 group M subtype B, UniProt P04578)
Test: CD spectroscopy of inhibitor complexed with N36
Assay type: binding, HIV-1
Conditions: α-helical content of complex, each peptide 10 μM in PBS pH 7.2, 20 C, [θ]222; repeated two times, representative data

N36 (gp41 NHR-derived target mimic peptide), sequence (P04578 546-581): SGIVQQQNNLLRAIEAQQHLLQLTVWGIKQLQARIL

**Q.** With Ac-MTWEEWDKKIEEYTKKIEEL-NH2 [MT-SC18EK] as the substance, how does the “CD data (with N36) Helix (%)” value read?
**A.** 56.3%

**Q.** “Ac-MTWEEWDKKIEEYTKKIEELI-NH2 [MT-SC19EK]” was tested. Which “CD data (with N36) Helix (%)” value did it give?
**A.** 84.8%

**Q.** Which “CD data (with N36) Helix (%)” value does the source give for “Ac-MTWEEWDKKIEEYTKKIEELIK-NH2 [MT-SC20EK]” here?
**A.** 82%

**Q.** Which “CD data (with N36) Helix (%)” value does the source give for “Ac-MTWEEWDKKIEEYTKKIEELIKK-NH2 [MT-SC21EK]” here?
**A.** 83.9%

**Q.** For “Ac-MTWEEWDKKIEEYTKKIEELIKKS-NH2 [MT-SC22EK]”, which “CD data (with N36) Helix (%)” value is on record?
**A.** 84.6%

**Q.** Which “CD data (with N36) Helix (%)” value does the source give for “Ac-MTWEEWDKKIEEYTKKIEELIKKSE-NH2 [MT-SC23EK]” here?
**A.** 84.1%

**Q.** “Ac-MTWEEWDKKIEEYTKKIEELIKKSEE-NH2 [MT-SC24EK]” was tested. Which “CD data (with N36) Helix (%)” value did it give?
**A.** 83.8%

**Q.** Which “CD data (with N36) Helix (%)” value does the source give for “Ac-MTWEEWDKKIEEYTKKIEELIKKSEEQ-NH2 [MT-SC25EK]” here?
**A.** 84.9%

**Q.** How did the “CD data (with N36) Helix (%)” value turn out when “Ac-MTWEEWDKKIEEYTKKIEELIKKSEEQQ-NH2 [MT-SC26EK]” was run?
**A.** 85.2%

**Q.** “Ac-MTWEEWDKKIEEYTKKIEELIKKSEEQQK-NH2 [MT-SC27EK]” was tested. Which “CD data (with N36) Helix (%)” value did it give?
**A.** 87.4%

**Q.** “Ac-MTWEEWDKKIEEYTKKIEELIKKSEEQQKK-NH2 [MT-SC28EK]” was tested. Which “CD data (with N36) Helix (%)” value did it give?
**A.** 84.5%

**Q.** With “Ac-MTWEEWDKKIEEYTKKIEELIKKSEEQQKKN-NH2 [MT-SC29EK]” as the substance, how does the “CD data (with N36) Helix (%)” value read?
**A.** 92%

**Q.** For “Ac-MTWEEWDKKIEEYTKKIEELIKKSEEQQKKNE-NH2 [MT-SC30EK]”, which “CD data (with N36) Helix (%)” value is on record?
**A.** 92.6%

**Q.** How did the “CD data (with N36) Helix (%)” value turn out when “Ac-MTWEEWDKKIEEYTKKIEELIKKSEEQQKKNEK-NH2 [MT-SC31EK]” was run?
**A.** 92.4%

**Q.** For “Ac-MTWEEWDKKIEEYTKKIEELIKKSEEQQKKNEKE-NH2 [MT-SC32EK]”, which “CD data (with N36) Helix (%)” value is on record?
**A.** 91.8%

**Q.** For “Ac-MTWEEWDKKIEEYTKKIEELIKKSEEQQKKNEKEL-NH2 [MT-SC33EK]”, which “CD data (with N36) Helix (%)” value is on record?
**A.** 93.8%

**Q.** “Ac-MTWEEWDKKIEEYTKKIEELIKKSEEQQKKNEKELK-NH2 [MT-SC34EK]” was tested. Which “CD data (with N36) Helix (%)” value did it give?
**A.** 92%

**Q.** With “Ac-MTWEEWDRKIEEYTKKIEELIKKSQNQQEKN-NH2 [MT-WQ-EKN]” as the substance, how does the “CD data (with N36) Helix (%)” value read?
**A.** 90.6%

**Q.** “Ac-MTWEEWDRKIEEYTKKIEELIKKSQNQQIDL-NH2 [MT-WQ-IDL, reference compound]” was tested. Which “CD data (with N36) Helix (%)” value did it give?
**A.** 86.9%

**Q.** With Ac-WEEWDKKIEEYTKKIEELI-NH2 [SC19EK] as the substance, how does the “CD data (with N36) Helix (%)” value read?
**A.** 80.3%

**Q.** How did the “CD data (with N36) Helix (%)” value turn out when Ac-WEEWDKKIEEYTKKIEELIK-NH2 [SC20EK] was run?
**A.** 78.8%

**Q.** Ac-WEEWDKKIEEYTKKIEELIKK-NH2 [SC21EK] was tested. Which “CD data (with N36) Helix (%)” value did it give?
**A.** 82.8%

**Q.** With Ac-WEEWDKKIEEYTKKIEELIKKS-NH2 [SC22EK] as the substance, how does the “CD data (with N36) Helix (%)” value read?
**A.** 85.5%

**Q.** With Ac-WEEWDKKIEEYTKKIEELIKKSE-NH2 [SC23EK] as the substance, how does the “CD data (with N36) Helix (%)” value read?
**A.** 80.7%

**Q.** How did the “CD data (with N36) Helix (%)” value turn out when “Ac-WEEWDKKIEEYTKKIEELIKKSEE-NH2 [SC24EK]” was run?
**A.** 79.9%

**Q.** With “Ac-WEEWDKKIEEYTKKIEELIKKSEEQ-NH2 [SC25EK]” as the substance, how does the “CD data (with N36) Helix (%)” value read?
**A.** 78.4%

**Q.** How did the “CD data (with N36) Helix (%)” value turn out when “Ac-WEEWDKKIEEYTKKIEELIKKSEEQQ-NH2 [SC26EK]” was run?
**A.** 83.1%

**Q.** How did the “CD data (with N36) Helix (%)” value turn out when “Ac-WEEWDKKIEEYTKKIEELIKKSEEQQK-NH2 [SC27EK]” was run?
**A.** 85.7%

**Q.** “Ac-WEEWDKKIEEYTKKIEELIKKSEEQQKK-NH2 [SC28EK]” was tested. Which “CD data (with N36) Helix (%)” value did it give?
**A.** 87.7%

**Q.** With “Ac-WEEWDKKIEEYTKKIEELIKKSEEQQKKN-NH2 [SC29EK, reference compound]” as the substance, how does the “CD data (with N36) Helix (%)” value read?
**A.** 88.9%

**Q.** With “Ac-WEEWDKKIEEYTKKIEELIKKSEEQQKKNE-NH2 [SC30EK]” as the substance, how does the “CD data (with N36) Helix (%)” value read?
**A.** 92.9%

**Q.** For “Ac-WEEWDKKIEEYTKKIEELIKKSEEQQKKNEK-NH2 [SC31EK]”, which “CD data (with N36) Helix (%)” value is on record?
**A.** 91.4%

**Q.** How did the “CD data (with N36) Helix (%)” value turn out when “Ac-WEEWDKKIEEYTKKIEELIKKSEEQQKKNEKE-NH2 [SC32EK]” was run?
**A.** 93.2%

**Q.** “Ac-WEEWDKKIEEYTKKIEELIKKSEEQQKKNEKEL-NH2 [SC33EK]” was tested. Which “CD data (with N36) Helix (%)” value did it give?
**A.** 94.1%

**Q.** How did the “CD data (with N36) Helix (%)” value turn out when “Ac-WEEWDKKIEEYTKKIEELIKKSEEQQKKNEKELK-NH2 [SC34EK, reference compound]” was run?
**A.** 92.6%

**Q.** “Ac-WEEWDRKIEEYTKKIEELIKKSQNQQEKN-NH2 [WQ-EKN]” was tested. Which “CD data (with N36) Helix (%)” value did it give?
**A.** 89.5%

**Q.** For “Ac-WEEWDRKIEEYTKKIEELIKKSQNQQIDL-NH2 [WQ-IDL, reference compound]”, which “CD data (with N36) Helix (%)” value is on record?
**A.** 87.8%

**Q.** How did the “CD data (with N36) Helix (%)” value turn out when “Ac-WMEWDREINNYTSLIHSLIEESQNQQEKAEQELL-NH2 [C34N145A]” was run?
**A.** 81%

Molecular target: T1, N39 (gp41 NHR-derived target mimic peptide) (Human immunodeficiency virus type 1 group M subtype B, UniProt P04578)
T1 construct: we further used the NHR-derived peptide N39
Test: CD spectroscopy of inhibitor complexed with N39
Assay type: binding, HIV-1
Conditions: each peptide 10 μM in PBS, repeated two times, representative data

T1 sequence (P04578 528-566): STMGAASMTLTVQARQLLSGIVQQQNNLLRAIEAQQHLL

**Q.** For enfuvirtide, which “α-helical content of complex with N39” value is on record?
**A.** 53%
